Laboratory results from ChEMBL document CHEMBL1126350, “Phosphonoethylphenylalanine derivatives as novel antagonists of non-NMDA ionotropic glutamate receptors” (Bioorg Med Chem Lett, 1992).

Key:
Assay type in all cases: functional
[1] = tested on: Mus musculus; experiment: Compound was tested for its ability to inhibit pentylenetetrazole-induced seizures in male CF-1 mice by i.c.v. administration
[2] = organism: Rattus norvegicus; experiment: Inhibition of kainic acid (KA)-induced currents in rat brain mRNA-injected xenopus oocytes
[3] = organism: Rattus norvegicus; experiment: The compound was tested for its ability to inhibit AMPA-induced currents in rat brain mRNA-injected xenopus oocytes
[4] = tested on: Mus musculus; experiment: Compound was tested for its ability to inhibit pentylenetetrazole-induced seizures in male CF-1 mice by i.p. administration; details: ip
[5] = organism: Rattus norvegicus; experiment: Compound was tested against kainic acid-induced neuronal damage in rat striatum, as assessed by preventing reduction in choline acetyltransferase (ChAT) activity; design: scale not given: the % may be the effect or the level left
[6] = organism: Rattus norvegicus; experiment: Compound was tested against kainic acid-induced neuronal damage in rat striatum, as assessed by preventing reduction in glutamate decarboxylase GAD activity; design: scale not given: the % may be the effect or the level left

Work on `O=C(O)C1CN(CCCP(=O)(O)O)CCN1` (stereo not given) yielded an ED50 [1] of 0.15 nmol.
For `NC(Cc1cc(Br)ccc1CCP(=O)(O)O)C(=O)O` (stereo not given), the Ki [2] was 10 µM and the Ki [3] was 61 µM.
Compound `Cc1cc(C)c(CCP(=O)(O)O)c(C[C@H](N)C(=O)O)c1` has an ED50 [1] of 0.3 nmol and an ED50 [4] of 111 mg/kg.
`Cc1ccc(CCP(=O)(O)O)c(C[C@H](N)C(=O)O)c1` gave an ED50 [1] of 0.58 nmol and an ED50 [4] of 124 mg/kg.
`NC(Cc1cc(C2CCCCC2)ccc1CCP(=O)(O)O)C(=O)O` (stereo not given) gave a Ki [2] of 139 µM.
For `Cc1ccc(CCP(=O)(O)O)c(CC(N)C(=O)O)c1` (stereo not given), the Ki [2] was 11 µM and the Ki [3] was 13 µM.
For `Cc1cccc(CCP(=O)(O)O)c1CC(N)C(=O)O` (stereo not given), the Ki [2] was > 100 µM.
Compound `NC(Cc1cc(Cl)ccc1CCP(=O)(O)O)C(=O)O` (stereo not given) has a Ki [2] of 15 µM and a Ki [3] of 48 µM.
With `CC(C)(C)c1ccc(CCP(=O)(O)O)c(CC(N)C(=O)O)c1` (stereo not given) the Ki [2] was 29 µM.
With `Cc1cccc(CC(N)C(=O)O)c1CCP(=O)(O)O` (stereo not given) the Ki [2] was > 100 µM.
`CCc1ccc(CCP(=O)(O)O)c(CC(N)C(=O)O)c1` (stereo not given) showed a Ki [2] of 17 µM and a Ki [3] of 50 µM.
With `Cc1ccc(CC(N)C(=O)O)c(CCP(=O)(O)O)c1` (stereo not given) the Ki [2] was > 100 µM.
With `COc1ccc(CCP(=O)(O)O)c(CC(N)C(=O)O)c1` (stereo not given) the Ki [2] was 67 µM.
In the case of `NC(Cc1cccc(-c2ccccc2)c1CCP(=O)(O)O)C(=O)O` (stereo not given), the Ki [2] is reported as 83 µM.
`NC(Cc1cc(F)ccc1CCP(=O)(O)O)C(=O)O` (stereo not given) showed a Ki [2] of 68 µM and a Ki [3] of 167 µM.
In the case of `Cc1cc(C)c(CCP(=O)(O)O)c(CC(N)C(=O)O)c1` (stereo not given), the Ki [2] is reported as 12 µM and the Ki [3] is reported as 39 µM.
`NC(Cc1cc(-c2ccccc2)ccc1CCP(=O)(O)O)C(=O)O` (stereo not given) gave a Ki [2] of 76 µM.
`NC(Cc1cc(C(F)(F)F)ccc1CCP(=O)(O)O)C(=O)O` (stereo not given) gave a Ki [2] of 10 µM.
With `NC(Cc1cc(I)ccc1CCP(=O)(O)O)C(=O)O` (stereo not given) the Ki [2] was 3.6 µM and the Ki [3] was 16 µM.
`C=C(C)[C@H]1CN[C@H](C(=O)O)[C@H]1CC(=O)O` [KAINIC ACID] gave an Activity [5] of 32% and an Activity [6] of 45%.
